In patent publication US12227520B2 (priority 2019, dated 2025):
Like-named read-outs stand apart in the source and are kept apart here.

Key:
HIV-1 (IIIB) = assay: Antiviral assay in MT-4 cells (HIV MT-4 antiviral assay); assay type: cell-based; conditions: Human immunodeficiency virus 1, IIIB, MT4, 120 h, HIV-1 (IIIB) in MT-4 cells, 5 days incubation; read-out: EC50
Summary of the method: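 Read-out is CellTiter-Glo chemiluminescence after 5-day culture at 37° C, giving protection of MT-4 cells from HIV-1 IIIB cytopathicity. Compounds tested in 1:3 dilution series in complete RPMI; controls were no drug, mock infection and 5 μM AZT.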

pLai RLuc reporter virus = assay: microbe, parasite or virus in culture; assay type: cell-based, HIV; conditions: Human immunodeficiency virus 1, 72 h
Summary of the method: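 Read-out is Renilla luciferase after 72 h at 37 °C in MT-4 cells infected 2 h beforehand with pLai RLuc reporter virus; compounds diluted 1:3.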

[1] = Cytotoxicity assay in MT-4 cells; assay type: cell-based, human; conditions: human, uninfected MT-4 cells, 5 days incubation; read-out: CC50
Summary of the method: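 For cytotoxicity, uninfected MT-4 cells were incubated with compounds 5 days at 37 °C, with 10 μM puromycin marking base cytotoxicity. Parallel plates used HIV-1 IIIB-infected (1:250 stock dilution) or mock cells with 5 μM AZT and no-drug controls. Read-out: CellTiter-Glo chemiluminescence.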

[2] = read-out: Antiviral Serum Shift RLuc 50% HS, HS/CCM (RPMI media, 10% FBS, 50% HS, 1% P/S), 72-h incubation
[3] = read-out: Antiviral Serum Shift RLuc CCM, CCM (RPMI media, 10% FBS, 1% P/S), 72-h incubation

| Structure (SMILES) | EC50 (HIV-1 (IIIB)) [nM] | EC50 (pLai RLuc reporter virus; [2]) [nM] | EC50 (pLai RLuc reporter virus; [3]) [nM] | CC50 at 5 days [1] [nM] |
| --- | --- | --- | --- | --- |
| C[C@@H]1CC[C@H](C)[C@@H]2CN1C(=O)c1c(O)c(=O)c(C(=O)NCc3c(F)cc(F)cc3F)cn12 [Example 151-1, (3R,6S,7R)-12-hydroxy-3,6-dimethyl-1,11-dioxo-N-(2,4,6-trifluorobenzyl)-1,4,5,6,7,11-hexahydro-3H-2,7-methanopyrido[1,2-a][1,4]diazonine-10-carboxamide] | 4.27 | 1140 | 0.729 | 14700 |
| C[C@@H]1CC[C@@H](C)N2C[C@H]1n1cc(C(=O)NCc3c(F)cc(F)cc3F)c(=O)c(O)c1C2=O [Example 151-2, (3R,6R,7S)-12-hydroxy-3,6-dimethyl-1,11-dioxo-N-(2,4,6-trifluorobenzyl)-1,4,5,6,7,11-hexahydro-3H-2,7-methanopyrido[1,2-a][1,4]diazonine-10-carboxamide] | 1.75 | 7.22 | 0.44 | 7200 |
| C[C@H]1C(F)=CC[C@H]2CN1C(=O)c1c(O)c(=O)c(C(=O)NCc3c(F)cc(F)cc3F)cn12 [Example 154-1, (3S,7S)-4-fluoro-12-hydroxy-3-methyl-1,11-dioxo-N-(2,4,6-trifluorobenzyl)-1,6,7,11-tetrahydro-3H-2,7-methanopyrido[1,2-a][1,4]diazonine-10-carboxamide] | 1.64 | 4.29 | 0.297 | 25700 |
| C[C@@H]1N2C[C@H](CCC1(F)F)n1cc(C(=O)NCc3c(F)cc(F)cc3F)c(=O)c(O)c1C2=O [Example 154-2, (3S,7S)-4,4-difluoro-12-hydroxy-3-methyl-1,11-dioxo-N-(2,4,6-trifluorobenzyl)-1,4,5,6,7,11-hexahydro-3H-2,7-methanopyrido[1,2-a][1,4]diazonine-10-carboxamide] | 1.94 | 7.14 | 0.306 | 15200 |
| C[C@]12CC=CCN(C1)C(=O)c1c(O)c(=O)c(C(=O)NCc3c(F)cc(F)cc3F)cn12 [Example 156, (7S)-12-hydroxy-7-methyl-1,11-dioxo-N-(2,4,6-trifluorobenzyl)-1,6,7,11-tetrahydro-3H-2,7-methanopyrido[1,2-a][1,4]diazonine-10-carboxamide] | 1.75 | 41.3 | 0.187 | 13700 |
| C[C@H]1CC[C@H](F)[C@H]2CN1C(=O)c1c(O)c(=O)c(C(=O)NCc3c(F)cc(F)cc3F)cn12 [Example 157, (3S,6S,7R)-6-fluoro-12-hydroxy-3-methyl-1,11-dioxo-N-(2,4,6-trifluorobenzyl)-1,4,5,6,7,11-hexahydro-3H-2,7-methanopyrido[1,2-a][1,4]diazonine-10-carboxamide] | 5.36 | 5.75 | 1.61 | 23700 |
| C[C@H]1[C@H](F)CC[C@H]2CN1C(=O)c1c(O)c(=O)c(C(=O)NCc3c(F)cc(F)cc3F)cn12 [Example 158, (3S,4R,7S)-4-fluoro-12-hydroxy-3-methyl-1,11-dioxo-N-(2,4,6-trifluorobenzyl)-1,4,5,6,7,11-hexahydro-3H-2,7-methanopyrido[1,2-a][1,4]diazonine-10-carboxamide] | 1.67 | 49.7 | 0.306 | 8830 |
| O=C(NCc1cccc(F)c1F)c1cn2c(c(O)c1=O)C(=O)N1CCCC[C@H]2C1 [Example 160, (7S)—N-(2,3-difluorobenzyl)-12-hydroxy-1,11-dioxo-1,4,5,6,7,11-hexahydro-3H-2,7-methanopyrido[1,2-a][1,4]diazonine-10-carboxamide] | 1.52 | 1.19 | 0.368 | 11400 |
| O=C(NCc1ccc(F)c(F)c1F)c1cn2c(c(O)c1=O)C(=O)N1CCCC[C@H]2C1 [Example 161, (7S)-12-hydroxy-1,11-dioxo-N-(2,3,4-trifluorobenzyl)-1,4,5,6,7,11-hexahydro-3H-2,7-methanopyrido[1,2-a][1,4]diazonine-10-carboxamide] | 2.1 | 1.01 | 0.3 | 4630 |
